Measured values reported in patent US20100298141A1, “SUBSTITUTED PYRIDINE N-OXIDE HERBICIDES” (E. I. DU PONT DE NEMOURS AND COMPANY, priority 2007, published 2010).

Key:
barnyardgrass [1] = assay: Test A pre-/postemergence greenhouse test; type: in vivo, Echinochloa crus-galli; conditions: for Plant response rating, Barnyardgrass: 0 to 100 scale where 0 is no effect and 100 is complete control; for Barnyardgrass plant response rating: 0 to 100 scale
In short: (§1)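 Test compounds in non-phytotoxic solvent with surfactant were applied as a preemergence soil spray to seeded loam/sand pots and, concurrently, postemergence to plants at 2–10 cm, one- to two-leaf stage. About ten days in greenhouse, then injury visually rated against untreated controls.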

crabgrass = assay: Test A pre-/postemergence greenhouse test; type: in vivo, Digitaria sanguinalis; conditions: for Plant response rating, Crabgrass, Large: 0 to 100 scale where 0 is no effect and 100 is complete control; for Crabgrass, Large plant response rating: 0 to 100 scale
In short: as §1

giant foxtail = assay: Test A pre-/postemergence greenhouse test; type: in vivo, Setaria faberi; conditions: for Plant response rating, Foxtail, Giant: 0 to 100 scale where 0 is no effect and 100 is complete control; for Foxtail, Giant plant response rating: 0 to 100 scale
In short: as §1

velvetleaf [2] = assay: Test A pre-/postemergence greenhouse test; type: in vivo, Abutilon theophrasti; conditions: for Plant response rating, Velvetleaf: 0 to 100 scale where 0 is no effect and 100 is complete control; for Velvetleaf plant response rating: 0 to 100 scale
In short: as §1

blackgrass = assay: Test C pre-/postemergence test; type: in vivo, Alopecurus myosuroides; conditions: for Plant response rating, Blackgrass: 31 g ai/ha, scale 0 to 100 (0 no effect, 100 complete control)
In short: (§2)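 Test chemicals were formulated with surfactant in a non-phytotoxic solvent and sprayed both on freshly planted seeds (preemergence) and on 1- to 4-leaf plants of 2–18 cm (postemergence). Flooded-paddy pots received compound directly into 3 cm of standing water, maintained for the test.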

downy brome = assay: Test C pre-/postemergence test; type: in vivo, Bromus tectorum; conditions: for Plant response rating, Bromegrass, Downy: 31 g ai/ha, scale 0 to 100 (0 no effect, 100 complete control)
In short: as §2

green foxtail = assay: Test C pre-/postemergence test; type: in vivo, Setaria viridis; conditions: for Plant response rating, Foxtail, Green: 31 g ai/ha, scale 0 to 100 (0 no effect, 100 complete control)
In short: as §2

catchweed bedstraw = assay: Test C pre-/postemergence test; type: in vivo, Galium aparine; conditions: for Plant response rating, Galium: 31 g ai/ha, scale 0 to 100 (0 no effect, 100 complete control)
In short: as §2

Surinam grass = assay: Test C pre-/postemergence test; type: in vivo, Brachiaria decumbens; conditions: for Plant response rating, Surinam Grass: 31 g ai/ha, scale 0 to 100 (0 no effect, 100 complete control)
In short: as §2

woolly cupgrass = assay: Test C pre-/postemergence test; type: in vivo, Eriochloa villosa; conditions: for Plant response rating, Cupgrass, Woolly: 31 g ai/ha, scale 0 to 100 (0 no effect, 100 complete control)
In short: as §2

lambsquarters = assay: Test C pre-/postemergence test; type: in vivo, Chenopodium album; conditions: for Plant response rating, Lambsquarters: 31 g ai/ha, scale 0 to 100 (0 no effect, 100 complete control)
In short: as §2

pigweed = assay: Test C pre-/postemergence test; type: in vivo, Amaranthus retroflexus; conditions: for Plant response rating, Pigweed: 31 g ai/ha, scale 0 to 100 (0 no effect, 100 complete control)
In short: as §2

common ragweed = assay: Test C pre-/postemergence test; type: in vivo, Ambrosia elation
In short: as §2

soybean = assay: Test C pre-/postemergence test; type: in vivo, Glycine max; conditions: for Plant response rating, Soybean: 31 g ai/ha, scale 0 to 100 (0 no effect, 100 complete control)
In short: as §2

velvetleaf [3] = assay: Test C pre-/postemergence test; type: in vivo, Abutilon theophrasti; conditions: for Plant response rating, Velvetleaf: 31 g ai/ha, scale 0 to 100 (0 no effect, 100 complete control)
In short: as §2

duck salad = assay: Test C flooded paddy test; type: in vivo, Heteranthera limosa; conditions: Flood
In short: (§3)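 Compound was added to standing water 3 cm above soil, flood maintained, and plants held in a greenhouse before visual scoring against controls at 13 to 15 days.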

barnyardgrass [4] = assay: Test C flooded paddy test; type: in vivo, Echinochloa crus-galli; conditions: Flood
In short: as §3

[5] = Postemergence, 500 g ai/ha, 0 is no effect, 100 is complete control
[6] = Preemergence, 125 g ai/ha, 0 no effect, 100 complete control
[7] = 62 g ai/ha, Preemergence, scale 0 to 100
[8] = 125 g ai/ha, preemergence, scale 0 (no effect) to 100 (complete control)
[9] = preemergence, 250 g ai/ha, scale 0 (no effect) to 100 (complete control)
[10] = 62 g ai/ha, scale 0 to 100 (0 no effect, 100 complete control)
[11] = 250 g ai/ha, scale 0 to 100, 0 no effect, 100 complete control, 13 to 15 days

Cn1nc(C(F)(F)F)c(C[S+]([O-])c2cccc[n+]2[O-])c1OCC(F)F (stereo not drawn) [Compound 75]
Plant response rating, Barnyardgrass (barnyardgrass [1]; Postemergence, 125 g ai/ha): 60 | Barnyardgrass plant response rating (barnyardgrass [1]; [5]): 80 | Barnyardgrass plant response rating (barnyardgrass [1]; [6]): 80 | Plant response rating, Barnyardgrass (barnyardgrass [1]; Preemergence, 500 g ai/ha): 100 | Plant response rating, Crabgrass, Large (crabgrass; Postemergence, 125 g ai/ha): 70 | Crabgrass, Large plant response rating (crabgrass; [5]): 80 | Crabgrass, Large plant response rating (crabgrass; [6]): 70 | Plant response rating, Crabgrass, Large (crabgrass; Preemergence, 500 g ai/ha): 100 | Plant response rating, Foxtail, Giant (giant foxtail; Postemergence, 125 g ai/ha): 80 | Foxtail, Giant plant response rating (giant foxtail; [5]): 90 | Foxtail, Giant plant response rating (giant foxtail; [6]): 90 | Plant response rating, Foxtail, Giant (giant foxtail; Preemergence, 500 g ai/ha): 100 | Plant response rating, Velvetleaf (velvetleaf [2]; Postemergence, 125 g ai/ha): 40 | Velvetleaf plant response rating (velvetleaf [2]; [5]): 80 | Velvetleaf plant response rating (velvetleaf [2]; [6]): 60 | Plant response rating, Velvetleaf (velvetleaf [2]; Preemergence, 500 g ai/ha): 100 | Blackgrass plant response rating (blackgrass; [7]): 100 | Blackgrass plant response rating (blackgrass; [8]): 100 | Plant response rating, Blackgrass (blackgrass; Preemergence): 60 | Blackgrass plant response rating (blackgrass; [9]): 100 | Bromegrass, Downy plant response rating (downy brome; [7]): 50 | Bromegrass, Downy plant response rating (downy brome; [8]): 85 | Plant response rating, Bromegrass, Downy (downy brome; Preemergence): 40 | Bromegrass, Downy plant response rating (downy brome; [9]): 90 | Foxtail, Green plant response rating (green foxtail; [7]): 98 | Foxtail, Green plant response rating (green foxtail; [8]): 98 | Plant response rating, Foxtail, Green (green foxtail; Preemergence): 80 | Foxtail, Green plant response rating (green foxtail; [9]): 100 | Galium plant response rating (catchweed bedstraw; [7]): 100 | Galium plant response rating (catchweed bedstraw; [8]): 100 | Plant response rating, Galium (catchweed bedstraw; Preemergence): 80 | Galium plant response rating (catchweed bedstraw; [9]): 100 | Surinam Grass plant response rating (Surinam grass; [7]): 100 | Surinam Grass plant response rating (Surinam grass; [8]): 100 | Plant response rating, Surinam Grass (Surinam grass; Preemergence): 60 | Surinam Grass plant response rating (Surinam grass; [9]): 100 | Cupgrass, Woolly plant response rating (woolly cupgrass; [7]): 85 | Cupgrass, Woolly plant response rating (woolly cupgrass; [8]): 100 | Plant response rating, Cupgrass, Woolly (woolly cupgrass; Preemergence): 85 | Cupgrass, Woolly plant response rating (woolly cupgrass; [9]): 100 | Lambsquarters plant response rating (lambsquarters; [7]): 100 | Lambsquarters plant response rating (lambsquarters; [8]): 100 | Plant response rating, Lambsquarters (lambsquarters; Preemergence): 100 | Lambsquarters plant response rating (lambsquarters; [9]): 100 | Pigweed plant response rating (pigweed; [7]): 100 | Pigweed plant response rating (pigweed; [8]): 100 | Plant response rating, Pigweed (pigweed; Preemergence): 100 | Pigweed plant response rating (pigweed; [9]): 100 | Ragweed plant response rating (common ragweed; [7]): 80 | Ragweed plant response rating (common ragweed; [8]): 85 | Plant response rating, Ragweed (common ragweed; Preemergence, 31 g ai/ha, scale 0 to 100 (0 no effect, 100 complete control)): 0 | Ragweed plant response rating (common ragweed; [9]): 100 | Soybean plant response rating (soybean; [7]): 98 | Soybean plant response rating (soybean; [8]): 100 | Plant response rating, Soybean (soybean; Preemergence): 0 | Velvetleaf plant response rating (velvetleaf [3]; [7]): 100 | Velvetleaf plant response rating (velvetleaf [3]; [8]): 100 | Plant response rating, Velvetleaf (velvetleaf [3]; Preemergence): 100 | Velvetleaf plant response rating (velvetleaf [3]; [9]): 100 | Plant response rating, Ducksalad (duck salad; [10]): 40 | Plant response rating, Ducksalad (duck salad; [11]): 85 | Plant response rating, Barnyardgrass (barnyardgrass [4]; [10]): 0 | Plant response rating, Barnyardgrass (barnyardgrass [4]; [11]): 45

C#CCOc1c(C[S+]([O-])c2cccc[n+]2[O-])c(C(F)(F)F)nn1C (stereo not drawn) [Compound 76]
Plant response rating, Barnyardgrass (barnyardgrass [1]; Postemergence, 125 g ai/ha): 70 | Barnyardgrass plant response rating (barnyardgrass [1]; [5]): 80 | Barnyardgrass plant response rating (barnyardgrass [1]; [6]): 80 | Plant response rating, Barnyardgrass (barnyardgrass [1]; Preemergence, 500 g ai/ha): 100 | Plant response rating, Crabgrass, Large (crabgrass; Postemergence, 125 g ai/ha): 50 | Crabgrass, Large plant response rating (crabgrass; [5]): 90 | Crabgrass, Large plant response rating (crabgrass; [6]): 80 | Plant response rating, Crabgrass, Large (crabgrass; Preemergence, 500 g ai/ha): 90 | Plant response rating, Foxtail, Giant (giant foxtail; Postemergence, 125 g ai/ha): 80 | Foxtail, Giant plant response rating (giant foxtail; [5]): 90 | Foxtail, Giant plant response rating (giant foxtail; [6]): 90 | Plant response rating, Foxtail, Giant (giant foxtail; Preemergence, 500 g ai/ha): 100 | Plant response rating, Velvetleaf (velvetleaf [2]; Postemergence, 125 g ai/ha): 60 | Velvetleaf plant response rating (velvetleaf [2]; [5]): 80 | Velvetleaf plant response rating (velvetleaf [2]; [6]): 50 | Plant response rating, Velvetleaf (velvetleaf [2]; Preemergence, 500 g ai/ha): 80 | Blackgrass plant response rating (blackgrass; [7]): 100 | Blackgrass plant response rating (blackgrass; [8]): 100 | Plant response rating, Blackgrass (blackgrass; Preemergence): 0 | Blackgrass plant response rating (blackgrass; [9]): 100 | Bromegrass, Downy plant response rating (downy brome; [7]): 45 | Bromegrass, Downy plant response rating (downy brome; [8]): 60 | Plant response rating, Bromegrass, Downy (downy brome; Preemergence): 0 | Bromegrass, Downy plant response rating (downy brome; [9]): 85 | Foxtail, Green plant response rating (green foxtail; [7]): 100 | Foxtail, Green plant response rating (green foxtail; [8]): 100 | Plant response rating, Foxtail, Green (green foxtail; Preemergence): 70 | Foxtail, Green plant response rating (green foxtail; [9]): 100 | Galium plant response rating (catchweed bedstraw; [7]): 100 | Galium plant response rating (catchweed bedstraw; [8]): 100 | Plant response rating, Galium (catchweed bedstraw; Preemergence): 100 | Galium plant response rating (catchweed bedstraw; [9]): 100 | Surinam Grass plant response rating (Surinam grass; [7]): 85 | Surinam Grass plant response rating (Surinam grass; [8]): 85 | Plant response rating, Surinam Grass (Surinam grass; Preemergence): 0 | Surinam Grass plant response rating (Surinam grass; [9]): 100 | Cupgrass, Woolly plant response rating (woolly cupgrass; [7]): 70 | Cupgrass, Woolly plant response rating (woolly cupgrass; [8]): 95 | Plant response rating, Cupgrass, Woolly (woolly cupgrass; Preemergence): 0 | Cupgrass, Woolly plant response rating (woolly cupgrass; [9]): 100 | Lambsquarters plant response rating (lambsquarters; [7]): 100 | Lambsquarters plant response rating (lambsquarters; [8]): 100 | Plant response rating, Lambsquarters (lambsquarters; Preemergence): 85 | Lambsquarters plant response rating (lambsquarters; [9]): 100 | Pigweed plant response rating (pigweed; [7]): 80 | Pigweed plant response rating (pigweed; [8]): 80 | Plant response rating, Pigweed (pigweed; Preemergence): 50 | Pigweed plant response rating (pigweed; [9]): 100 | Ragweed plant response rating (common ragweed; [7]): 20 | Ragweed plant response rating (common ragweed; [8]): 100 | Ragweed plant response rating (common ragweed; [9]): 100 | Soybean plant response rating (soybean; [7]): 40 | Soybean plant response rating (soybean; [8]): 80 | Plant response rating, Soybean (soybean; Preemergence): 0 | Soybean plant response rating (soybean; [9]): 95 | Velvetleaf plant response rating (velvetleaf [3]; [7]): 100 | Velvetleaf plant response rating (velvetleaf [3]; [8]): 100 | Plant response rating, Velvetleaf (velvetleaf [3]; Preemergence): 0 | Velvetleaf plant response rating (velvetleaf [3]; [9]): 100 | Plant response rating, Ducksalad (duck salad; [10]): 0 | Plant response rating, Ducksalad (duck salad; [11]): 100 | Plant response rating, Barnyardgrass (barnyardgrass [4]; [10]): 0 | Plant response rating, Barnyardgrass (barnyardgrass [4]; [11]): 20
